Here are results for 26 molecules from ChEMBL document CHEMBL1136285, “Discovery of a novel potent Na+/Ca2+ exchanger inhibitor: design, synthesis and structure-activity relationships of 3,4-dihydro-2(1H)-quinazolinone derivatives” (Bioorg Med Chem Lett, 2003).

SMILES strings stand for the structures.

System in the first data set: not listed separately
As to the kind of experiment: pKa value was determined. It counts as physicochemical.
The term pKa denotes the negative logarithm of the acid dissociation constant. Read a high pKa as a group that holds its proton tightly. Consider `CCN(CC)C(=O)CN1C(=O)Nc2ccccc2C1c1ccccc1` (stereo not drawn), for which the pKa was -0.58.
Regarding `CCN(CC)CCN1C(=O)Nc2ccccc2C1c1ccccc1` (stereo not drawn), the pKa is 10.2.

For a further data set, the species on record is Cavia porcellus. The data set can be described thus: Inhibitory activity (1 uM) against Na+/[Ca2+] exchanger after 30 min of K+ free incubation in isolated left atria from guinea pig. It counts as functional.
As usually defined, the Inhibition is the percentage by which the read-out fell short of the control. A high value points to a response far below the control. As for `CCOc1ccc(Oc2ccc(OCc3cc(F)ccc3F)cc2)c(N)c1`, the Inhibition is more than 80%.

The species entered for another data set is Cavia porcellus. As to the kind of experiment: Inhibitory activity against Na+/[Ca2+] exchanger after 30 min of K+ free incubation in isolated left atria from guinea pig.
By IC30 is commonly meant the point of the concentration-response curve where the effect stands at 30%. Low values mean an effect from little substance, high ones a need for much substance. Consider `CC(C)CCCN1C(=O)Nc2ccccc2C1c1ccccc1` (stereo not drawn), for which the IC30 was more than 10000 nM.
On to `CN(C)CCCN1C(=O)Nc2ccccc2C1c1ccccc1` (stereo not drawn), for which the IC30 was found to be 350 nM.
Still for that read-out and setting: with `CN(C)CCCN1C(=O)Nc2ccccc2C1c1cccs1` (stereo not drawn) the figure was 720 nM; with `CCN(CC)C(=O)CN1C(=O)Nc2ccccc2C1c1ccccc1` (stereo not drawn), more than 10000 nM.
For `CCN1CCC(N2C(=O)Nc3ccccc3C2c2ccccc2)CC1` (stereo not drawn), the 30% effect level (IC30) was put at 53 nM.
Same read-out and setting: the value for `CCN(CC)CCCN1C(=O)Nc2ccccc2C1c1ccccc1` (stereo not drawn) was 40 nM; that for `CN(C)CCCN1C(S)=Nc2ccccc2C1c1ccccc1` (stereo not drawn) was 3800 nM.
`CN1CCC(N2C(=O)Nc3ccccc3C2c2ccccc2)CC1` (stereo not drawn) returned an IC30 of 87 nM. This IC30 is about 44-fold lower than that of the molecule before.
The molecule `CN(C)CCCN1C(=O)Nc2ccccc2C1C1CCCCC1` (stereo not drawn) gave an IC30 of 570 nM.
In the case of `CN(C)CCCN1C(=O)Nc2ccccc2C1Cc1ccccc1` (stereo not drawn), the concentration for an effect of 30% (IC30) was more than 10000 nM.
The same measure, in the same setting: the value for `CN(C)CCCN1C(=O)Nc2ccc(Cl)cc2C1c1ccccc1` (stereo not drawn) was 460 nM; that for `CCN(CC)CCN1C(=O)Nc2ccccc2C1c1ccccc1` (stereo not drawn) was 69 nM.
The molecule `CN(C)CCCN1C(=O)Nc2ccccc2C1c1ccccn1` (stereo not drawn) registered an IC30 of 510 nM.
The same measure, in the same setting: the value for `CCCN1CCC(N2C(=O)Nc3ccccc3C2c2ccccc2)CC1` (stereo not drawn) was 93 nM.
`CN(C)CCCN1C(=O)N(C)c2ccc(Cl)cc2C1c1ccccc1` (stereo not drawn) registered an IC30 of more than 10000 nM.
Same read-out and setting: with `O=C1Nc2ccccc2C(c2ccccc2)N1C1CCN(CCc2ccccc2)CC1` (stereo not drawn) the figure was 3600 nM.
As for `O=C1Nc2ccccc2C(c2ccccc2)N1C1CCNCC1` (stereo not drawn), it took 1100 nM to reach the 30% level (IC30).
Consider `CN(C)CCCN1C(=O)Nc2ccc(Cl)cc2C1c1ccco1` (stereo not drawn), for which the IC30 was determined as 690 nM. Against the preceding molecule, the IC30 is about 1.6-fold lower.
The molecule `NCCN1C(=O)Nc2ccccc2C1c1ccccc1` (stereo not drawn) showed an IC30 of more than 10000 nM.
Still for that read-out and setting: the value for `CC1c2ccccc2NC(=O)N1CCCN(C)C` (stereo not drawn) was 5300 nM; that for `O=C1Nc2ccccc2C(c2ccccc2)N1C1CCN(Cc2ccccc2)CC1` (stereo not drawn) was 17 nM; that for `CCNCCN1C(=O)Nc2ccccc2C1c1ccccc1` (stereo not drawn) was 580 nM.
`O=C1Nc2ccccc2C(c2ccccc2)N1C1CCN(CC2CCCCC2)CC1` (stereo not drawn) returned an IC30 of 4000 nM.
The same measure, in the same setting: with `CCN(CC)CCCCN1C(=O)Nc2ccccc2C1c1ccccc1` (stereo not drawn) the figure was 1900 nM.
Same read-out and setting: with `CCOCCN1C(=O)Nc2ccccc2C1c1ccccc1` (stereo not drawn) the figure was more than 10000 nM.
